Measurements from patent US9346769B2, “Tetrazolones as inhibitors of fatty acid synthase” (Infinity Pharmaceuticals, Inc., priority 2010, dated 2016).
pIC50: −log10 of the molar value.

The molecules below were run against T1, human FASN (Homo sapiens, UniProt P49327) (assay: FASN NADPH Consumption Assay). Conditions: human FASN purified from SKBR3 cells; starred symbols.
T1 construct: was purified from SKBR3 cells using procedures modified from those in Jayakumar et al; endogenous in cells; host or cells: SKBR3 human breast cancer cells (ATCC); Endogenous enzyme purified by ammonium sulfate precipitation and a mono Q column
T1 sequence (P49327 whole entry): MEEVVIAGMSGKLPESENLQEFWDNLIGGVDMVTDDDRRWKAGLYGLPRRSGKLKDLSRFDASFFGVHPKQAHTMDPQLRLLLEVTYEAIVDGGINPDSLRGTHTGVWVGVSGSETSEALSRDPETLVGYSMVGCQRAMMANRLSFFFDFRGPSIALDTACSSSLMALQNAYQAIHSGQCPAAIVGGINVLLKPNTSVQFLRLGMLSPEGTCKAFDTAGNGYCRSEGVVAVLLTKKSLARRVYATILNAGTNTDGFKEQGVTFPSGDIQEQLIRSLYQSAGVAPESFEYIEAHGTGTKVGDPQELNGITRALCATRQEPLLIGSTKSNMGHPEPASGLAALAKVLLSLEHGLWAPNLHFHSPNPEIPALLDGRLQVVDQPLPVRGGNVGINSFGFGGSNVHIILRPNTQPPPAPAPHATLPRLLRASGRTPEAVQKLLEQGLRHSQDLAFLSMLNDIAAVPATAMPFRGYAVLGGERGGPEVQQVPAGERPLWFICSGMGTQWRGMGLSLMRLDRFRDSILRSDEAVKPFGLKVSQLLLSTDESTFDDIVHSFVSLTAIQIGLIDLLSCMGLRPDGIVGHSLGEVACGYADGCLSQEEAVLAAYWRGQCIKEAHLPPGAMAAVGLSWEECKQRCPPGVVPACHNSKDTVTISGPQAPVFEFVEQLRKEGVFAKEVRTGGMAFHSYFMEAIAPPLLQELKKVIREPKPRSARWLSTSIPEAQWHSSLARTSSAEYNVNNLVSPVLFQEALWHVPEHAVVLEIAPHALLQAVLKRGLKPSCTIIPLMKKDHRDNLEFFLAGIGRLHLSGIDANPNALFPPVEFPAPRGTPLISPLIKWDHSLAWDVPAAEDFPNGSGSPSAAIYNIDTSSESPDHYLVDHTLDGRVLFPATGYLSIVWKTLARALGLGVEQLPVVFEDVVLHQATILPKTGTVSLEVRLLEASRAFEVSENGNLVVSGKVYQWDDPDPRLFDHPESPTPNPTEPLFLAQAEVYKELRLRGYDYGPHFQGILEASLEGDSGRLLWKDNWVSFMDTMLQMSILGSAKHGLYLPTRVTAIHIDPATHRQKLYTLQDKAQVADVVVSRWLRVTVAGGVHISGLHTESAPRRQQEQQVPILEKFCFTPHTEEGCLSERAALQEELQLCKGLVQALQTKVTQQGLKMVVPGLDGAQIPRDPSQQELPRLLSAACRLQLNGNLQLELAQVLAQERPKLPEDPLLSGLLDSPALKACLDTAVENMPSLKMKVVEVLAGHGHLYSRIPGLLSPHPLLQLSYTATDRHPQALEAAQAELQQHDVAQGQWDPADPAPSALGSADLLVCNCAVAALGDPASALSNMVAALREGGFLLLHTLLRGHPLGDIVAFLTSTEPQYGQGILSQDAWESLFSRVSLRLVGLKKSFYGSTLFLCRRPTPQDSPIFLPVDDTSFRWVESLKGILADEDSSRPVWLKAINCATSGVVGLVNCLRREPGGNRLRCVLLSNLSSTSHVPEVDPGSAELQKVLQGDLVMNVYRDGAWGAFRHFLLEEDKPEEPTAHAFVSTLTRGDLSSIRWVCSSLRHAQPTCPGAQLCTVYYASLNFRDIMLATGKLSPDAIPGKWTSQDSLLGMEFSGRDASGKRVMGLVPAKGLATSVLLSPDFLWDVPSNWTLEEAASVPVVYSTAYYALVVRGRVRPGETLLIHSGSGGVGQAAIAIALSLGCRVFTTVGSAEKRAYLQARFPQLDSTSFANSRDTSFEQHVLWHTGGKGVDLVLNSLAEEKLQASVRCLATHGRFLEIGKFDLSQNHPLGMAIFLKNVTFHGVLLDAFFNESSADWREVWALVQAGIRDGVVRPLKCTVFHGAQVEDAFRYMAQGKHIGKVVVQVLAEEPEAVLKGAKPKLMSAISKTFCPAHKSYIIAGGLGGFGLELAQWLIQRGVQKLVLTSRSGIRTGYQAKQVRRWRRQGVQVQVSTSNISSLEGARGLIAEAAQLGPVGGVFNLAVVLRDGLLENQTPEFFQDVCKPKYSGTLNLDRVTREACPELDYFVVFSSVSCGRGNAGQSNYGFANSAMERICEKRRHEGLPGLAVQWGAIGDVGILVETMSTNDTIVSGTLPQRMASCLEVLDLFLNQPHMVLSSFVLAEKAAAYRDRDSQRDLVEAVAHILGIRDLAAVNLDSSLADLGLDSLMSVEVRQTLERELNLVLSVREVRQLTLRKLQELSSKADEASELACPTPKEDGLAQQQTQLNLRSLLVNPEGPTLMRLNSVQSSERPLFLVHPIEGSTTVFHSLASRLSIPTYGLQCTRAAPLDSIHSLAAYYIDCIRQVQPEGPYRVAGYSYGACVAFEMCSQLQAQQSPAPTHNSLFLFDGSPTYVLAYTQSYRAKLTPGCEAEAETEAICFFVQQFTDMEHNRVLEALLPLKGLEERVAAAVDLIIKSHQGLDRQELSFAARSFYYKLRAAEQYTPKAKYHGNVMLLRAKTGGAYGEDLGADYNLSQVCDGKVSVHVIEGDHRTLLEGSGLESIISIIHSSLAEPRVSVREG
Format: biochemical
In short: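 Native human FASN purified from SKBR3 cells (60 nM final) preincubated 30 min at 37 °C with compound (2.4 nM–40 μM, 4% DMSO) in pH 7.0 phosphate buffer with 5 mM DTT. Reaction started with 0.2 mM NADPH, 50 μM butyryl-CoA, 0.5 mM malonyl-CoA; NADPH consumption followed kinetically by fluorescence (ex 340/em 460 nm); IC50 from logistic fit.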

| pIC50 | Compound |
| --- | --- |
| 6.60 to 7.22 | CCN(C(=O)n1nnn(-c2c(F)cc(F)cc2Br)c1=O)c1ccccc1 |
| 6.60 to 7.22 | O=CNc1cccc2c1CCCN2C(=O)n1nnn(-c2c(F)cccc2F)c1=O |
| > 7.22 | CCN(C(=O)n1nnn(-c2c(F)cccc2F)c1=O)c1ccccc1[N+](=O)[O-] |
| 6.60 to 7.22 | CN(C(=O)n1nnn(-c2c(F)cccc2F)c1=O)c1ccc(F)cc1 |
| 6.60 to 7.22 | CC(C)(C)OC(=O)Nc1ccc2c(c1)CCCN2C(=O)n1nnn(-c2c(F)cccc2F)c1=O |
| 6.60 to 7.22 | CCN(C(=O)n1nnn(-c2ccccc2Cl)c1=O)c1ccccc1 |
| 6.60 to 7.22 | CCN(C(=O)n1nnn(-c2ccccc2OC)c1=O)c1ccc(C(=O)O)c(OC)c1 |
| > 7.22 | CCN(C(=O)n1nnn(-c2c(F)cccc2F)c1=O)c1cccc(F)c1F |
| 6.60 to 7.22 | CN(C(=O)n1nnn(-c2ccccc2Cl)c1=O)c1ccccc1F |
| 6.60 to 7.22 | CCN(C(=O)n1nnn(-c2c(F)cccc2F)c1=O)c1ccc(C#Cc2ccccc2)cc1F |
| 6.60 to 7.22 | CCN(C(=O)n1nnn(-c2c(F)cccc2F)c1=O)c1ccc(Cl)cc1Cl |
| 6.60 to 7.22 | CC(C)N(C(=O)n1nnn(-c2c(F)cccc2F)c1=O)c1ccccc1 |
| 6.00 to 6.60 | CN(C(=O)n1nnn(-c2ccccc2Cl)c1=O)c1cccc(F)c1 |
| > 7.22 | CCN(C(=O)n1nnn(-c2c(F)cccc2F)c1=O)c1ccc(Br)cc1 |
| 6.60 to 7.22 | CCN(C(=O)n1nnn(-c2c(F)cccc2F)c1=O)c1ccc(C(=O)OCc2ccccc2)c(OC)c1 |
| 6.60 to 7.22 | O=C(N(c1ccccc1)c1ccccc1)n1nnn(-c2c(F)cccc2F)c1=O |
| 6.60 to 7.22 | CCN(C(=O)n1nnn(-c2c(Cl)cccc2Cl)c1=O)c1ccc(Cl)c(C(=O)O)c1 |
| 6.60 to 7.22 | CN(C(=O)n1nnn(-c2c(F)cccc2F)c1=O)c1cccc(Br)c1 |
| 6.60 to 7.22 | CCN(C(=O)n1nnn(-c2c(F)cccc2F)c1=O)c1ccc(C)cc1 |
| 6.60 to 7.22 | COc1cccc(N(C)C(=O)n2nnn(-c3c(F)cccc3F)c2=O)c1 |
| 6.60 to 7.22 | CCN(C(=O)n1nnn(-c2c(F)cccc2F)c1=O)c1ccc([N+](=O)[O-])cc1 |
| 6.60 to 7.22 | COc1ccc2c(c1)CCCN2C(=O)n1nnn(-c2c(F)cccc2F)c1=O |
| > 7.22 | O=C(N1c2ccccc2Sc2ccccc21)n1nnn(-c2c(F)cccc2F)c1=O |
| 6.60 to 7.22 | CN(C(=O)n1nnn(-c2c(F)cccc2F)c1=O)c1ccccc1F |
| 6.60 to 7.22 | CCN(C(=O)n1nnn(-c2c(Cl)cccc2Cl)c1=O)c1cccc(C#N)c1 |

Continued, molecule first:

| Compound | pIC50 |
| --- | --- |
| CC(C)(C)OC(=O)NC1CCCN(C(=O)n2nnn(-c3c(Cl)cccc3Cl)c2=O)C1 (centres unmarked) | 5.00 to 6.00 |
| CN(C)C(=O)[C@@H]1CCCN1C(=O)n1nnn(-c2c(Cl)cccc2Cl)c1=O | < 5.00 |
| CCCN(C(=O)n1nnn(-c2ccccc2Cl)c1=O)C1CCCCC1 | 5.00 to 6.00 |
| O=C(OCc1ccccc1)c1ccc(N(CCc2cccnc2)C(=O)n2nnn(-c3c(Cl)cccc3Cl)c2=O)cc1 | 6.00 to 6.60 |
| CN(CCc1ccccc1)C(=O)n1nnn(-c2ccccc2Cl)c1=O | < 5.00 |
| CCN(C(=O)n1nnn(-c2c(Cl)cccc2Cl)c1=O)C1CCCN(C(C)=O)C1 (centres unmarked) | 5.00 to 6.00 |
| CCN(C(=O)n1nnn(-c2cccc(C#N)c2)c1=O)C1CCCCC1 | < 5.00 |
| CCN(C(=O)n1nnn(-c2ccc(OC)cc2)c1=O)C1CCCCC1 | < 5.00 |
| CCN(C(=O)n1nnn(-c2ccccc2Oc2ccccc2)c1=O)C1CCCCC1 | 5.00 to 6.00 |
| O=CNCC(=O)NCCCN(C(=O)n1nnn(-c2c(Cl)cccc2Cl)c1=O)C1CCCCC1 | 5.00 to 6.00 |
| O=C(N1CC[C@](O)(c2ccccc2)[C@@H]2CCCC[C@H]21)n1nnn(-c2c(F)cccc2F)c1=O | 5.00 to 6.00 |
| CS(=O)(=O)NC1CCCN(C(=O)n2nnn(-c3c(Cl)cccc3Cl)c2=O)C1 (centres unmarked) | < 5.00 |
| CCN(C(=O)n1nnn(-c2c(Cl)cccc2Cl)c1=O)C1CCN(C)CC1 | < 5.00 |
| CCN(C(=O)n1nnn(-c2c(C)nn(C)c2C)c1=O)C1CCCCC1 | < 5.00 |
| CCN(C(=O)n1nnn(-c2c(Cl)cccc2Cl)c1=O)C1CCCC(C(=O)O)C1 (centres unmarked) | 5.00 to 6.00 |
| O=C(N1CCCCc2ccccc21)n1nnn(-c2c(F)cccc2Br)c1=O | 6.00 to 6.60 |
| CCN(C(=O)n1nnn(-c2ccc(C(F)(F)F)cc2Cl)c1=O)C1CCCCC1 | < 5.00 |
| O=C(N1CCCC2CCCCC21)n1nnn(-c2c(Cl)cccc2Cl)c1=O (centres unmarked) | 6.00 to 6.60 |
| COc1ccc(CNC(=O)n2nnn(-c3c(Cl)cccc3Cl)c2=O)c(OC)c1 | < 5.00 |
| O=C(O)c1ccc2c(c1)CCCN2C(=O)n1nnn(-c2ccccc2)c1=O | 6.60 to 7.22 |
| CCN(C(=O)n1nnn(-c2ccc(Cl)cc2)c1=O)C1CCCCC1 | < 5.00 |
| CCN(C(=O)n1nnn(-c2cc(Cl)ccc2Cl)c1=O)C1CCCCC1 | 5.00 to 6.00 |
| CCN(C(=O)n1nnn(-c2c(C)cc(C)cc2C)c1=O)C1CCCCC1 | < 5.00 |

| Compound | pIC50 |
| --- | --- |
| Cc1nonc1NC(=O)CN(C(=O)n1nnn(-c2c(Cl)cccc2Cl)c1=O)C1CCCCC1 | < 5.00 |
| CCN(C(=O)n1nnn(-c2c(Cl)cccc2Cl)c1=O)C1CCN(C(=O)CCC(=O)O)CC1 | 5.00 to 6.00 |
| CCCCCCN(C(=O)n1nnn(-c2ccccc2OC)c1=O)c1cc(C(=O)O)ccc1OC | 6.00 to 6.60 |
| CCN(C(=O)n1nnn(-c2ccc(F)c(F)c2F)c1=O)C1CCCCC1 | < 5.00 |
| CCN(C)C(=O)n1nnn(-c2ccccc2Cl)c1=O | < 5.00 |
| O=C(N1CCCC2CCCCC21)n1nnn(-c2c(F)cccc2F)c1=O (centres unmarked) | 6.60 to 7.22 |
| CCNC(=O)NCCCN(C(=O)n1nnn(-c2c(Cl)cccc2Cl)c1=O)C1CCCCC1 | 5.00 to 6.00 |
| CCN(C(=O)n1nnn(-c2c(Cl)cccc2Cl)c1=O)C1CCCC(C(=O)OCc2ccccc2)C1 (centres unmarked) | 5.00 to 6.00 |
| Cc1ccccc1C#Cc1cccc(F)c1-n1nnn(C(=O)N2CCCC3CCCCC32)c1=O (centres unmarked) | 6.60 to 7.22 |
| CCNC(=O)NC1CCCN(C(=O)n2nnn(-c3c(Cl)cccc3Cl)c2=O)C1 (centres unmarked) | < 5.00 |
| CC(=O)NCCCN(C(=O)n1nnn(-c2c(Cl)cccc2Cl)c1=O)C1CCCCC1 | 5.00 to 6.00 |
| CCN(C(=O)n1nnn(-c2ccc(Br)cc2Br)c1=O)C1CCCCC1 | 5.00 to 6.00 |
| COc1ccccc1-n1nnn(C(=O)N(c2ccccc2)c2ccc(C(=O)O)cc2)c1=O | > 7.22 |
| CN(C)N(C(=O)n1nnn(-c2ccccc2F)c1=O)C1=CCCCC1 | 6.00 to 6.60 |
| CN(C)N(C(=O)n1nnn(-c2ccccc2Br)c1=O)C1=CCCCC1 | 6.00 to 6.60 |
| CCN(C(=O)n1nnn(-c2c(Cl)cccc2Cl)c1=O)C1CCC(C(=O)N2CCOCC2)CC1 (centres unmarked) | < 5.00 |
| CCN(C(=O)n1nnn(-c2c(Cl)cccc2Cl)c1=O)C1CCN(C(C)=O)CC1 | 5.00 to 6.00 |
| O=C(OCc1ccccc1)c1ccc2c(c1)CCCN2C(=O)n1nnn(-c2c(Cl)cccc2Cl)c1=O | 5.00 to 6.00 |
| CCN(C(=O)n1nnn(-c2ccc(F)cc2F)c1=O)C1CCCCC1 | 5.00 to 6.00 |
| CCCCc1ccc(-n2nnn(C(=O)N(CC)C3CCCCC3)c2=O)c(C)c1 | < 5.00 |
| CCN(C(=O)n1nnn(-c2c(Cl)cccc2Cl)c1=O)C1CCC(NC(=O)OC(C)(C)C)CC1 (centres unmarked) | < 5.00 |
| CCN(C(=O)n1nnn(-c2c(Cl)cccc2Cl)c1=O)[C@@H]1CCC[C@@H](C(=O)N2CCOCC2)C1 | 5.00 to 6.00 |
| CCN(C(=O)n1nnn(-c2ccc(Cl)cc2Cl)c1=O)C1CCCCC1 | 5.00 to 6.00 |
